Experimental data published in article PMC5068747, “Using C. elegans Forward and Reverse Genetics to Identify New Compounds with Anthelmintic Activity” (PLoS Neglected Tropical Diseases, 2016).
Where two headings read alike, the source gives them in different places. Each block holds one compound with its values, some of them ahead of it.

Legend:
A. suum complex II = system: A. suum complex II; design: method as in PMID 26198225; conditions: cited from earlier work
porcine complex II = system: porcine complex II; design: method as in PMID 26198225; conditions: cited from earlier work
[1] = system: C. elegans VC2010 (wild type); experiment: WormScan screen of C. elegans growth, fecundity, motility and mortality; format: in vivo, Caenorhabditis elegans; design: normalized WormScan score: dose or concentration left out as unconfirmed
Protocol: (§1) All compound libraries were stored in 96-well plates, with 80 drugs per plate (columns 1 and 12 left empty). A BioGrid BG600 pinning robot (Digilab / BioRobotics) was used for compound transfer. The robot uses a 96-pin tool (0.7 mm dia.) to transfer a nominal volume of 340 nL of compound. For retesting, compounds were hand pinned from the original library plates to assay plates using a single 0.7 mm dia. pin. The assay plates were 96-well clear flat-bottom microplates containing 2% χ1666 E.coli bacteria in 0.5X Liquid Nematode Growth Media (LNGM) plus cholesterol (Bacteria were mass-grown in rich media, and harvested by centrifugation to produce a thick paste of bacterial cells that was kept frozen at -20°C. Cells were resuspended at 2% W/V in 0.5X LNGM to produce liquid worm food). Using a COPAS Biosort (Union Biometrica), two L4 to young adult stage VC2010 worms were added to each well of the plate in a final volume of 45 μL. After five days of exposure to the compounds, the plates were scanned and the data analyzed. A five day time period was chosen to be able to observe effects over all stages of the life cycle and through at least one round of replication. The initial proof-of-principle primary screen was performed manually using a dissecting microscope. Phenotypes scored included decreased motility, reduced brood size, and/or death as described previously. For high throughput screening of the Chembridge and Maybridge compound libraries we used the program WormScan, which was adapted for screening 96-well flat-bottom LNGM plates. Using WormScan it was possible to screen four 96-well plates at a time. Plates were scanned twice, at a resolution of 1200 dots per inch, 16-bit grayscale, producing a jpeg image. The light intensity produced by the scanner was sufficient to cause negative phototaxis equivalent to a physical stimulus for mortality determination. The time required to scan four 96-well plates using an Epson Perfection V700 Photo Scanner was less than ten minutes. The time to screen a single plate was less than 1.2 minutes, with less than ten seconds between scans.
(§2) WormScan was used to screen for the same phenotypes as in the manual screen (reduced brood size, reduced behavior/motility response and increased mortality). Two sequential scans for each 96-well plate were aligned to a reference region of interest (ROI). Image analysis was based on a difference image score calculated for each ROI. The difference image score (WormScan score) was normalized using a “percent of control” method to derive a normalized WormScan score. […] Wild-type growth in 1% DMSO (Fig 1A) results in a normalized WormScan score of 100. Exposure to 50 nM ivermectin gives a score of 0 (Fig 1C), and complete absence of worms gives a score of 0 (Fig 1D). For the primary screen the WormScan score was calculated using custom macro scripts written for Fiji. For secondary screening and any subsequent studies the WormScan score was calculated using a standalone Java program (See supplemental). Probit regression of mortality was calculated using Mathematica 8.0.

[2] = system: Human embryonic kidney (HEK293) cells; experiment: HEK293 viability, MTT colorimetric assay; format: cell-based; conditions: read-out: Mammalian IC50
Protocol: Potential anthelmintic compounds identified from primary screening were further tested against mammalian cells and yeast to determine whether they had deleterious effects in those organisms. Human embryonic kidney (HEK293) cells were grown in Dulbecco’s Modified Eagle’s Medium (DMEM; Sigma) containing 5% fetal bovine serum (FBS; Sigma) in 96-well plates tissue culture plates. Compounds were added 24h post-plating at 10, 30, 100, or 300 μM final concentrations. Dimethyl sulfoxide (DMSO) was used as a negative control at 0.1%. Cells were treated for 24 or 48 hours, after which time viability was assessed using a 3-(4,5-dimethylthiazol-2-yl)-2,5-diphenyltetrazolium bromide (MTT) colorimetric assay. Percent viability was determined by comparing treatment values to DMSO control values.

[3] = system: S. cerevisiae yeast strain BY4743; experiment: Yeast growth rate (OD600) dose titration; format: cell-based; conditions: BY4743, YPD, growth rate reduced by 50%
Protocol: The S. cerevisiae yeast strain BY4743 (MATa/α his3Δ1/his3Δ1 leu2Δ0/leu2Δ0 LYS2/lys2Δ0 met15Δ0/MET15 ura3Δ0/ura3Δ0) was used for all yeast experiments and was grown using yeast extract peptone dextrose (YPD) media at pH 7 [52]. BY4743 was grown overnight to initial log phase and was then grown with the compound identified in the C. elegans assay. The growth rate was quantified by continuously monitoring the optical density of the liquid yeast growth at OD600. The compound was screened in a dose-titration in YPD as described. The IC50 was the concentration required to reduce the growth rate or Average G value by 50% compared to a vehicle control (2% DMSO).

[4] = system: C. elegans DA1316 (avr-14(ad1302); avr-15(vu227); glc-1(pk54), ivermectin resistant); experiment: IC50 on ivermectin resistant C. elegans strain; format: in vivo, Caenorhabditis elegans; conditions: 5 days exposure, 2 L4 per well, three biological replicates
[5] = system: C. elegans CB3474 (ben-1(e1880), benomyl resistant); experiment: IC50 on benzimidazole resistant C. elegans strain; format: in vivo, Caenorhabditis elegans; conditions: 5 days exposure, 2 L4 per well, three biological replicates
[6] = system: C. elegans CB193 (unc-29(e193), levamisole resistant); experiment: IC50 on levamisole resistant C. elegans strain; format: in vivo, Caenorhabditis elegans; conditions: 5 days exposure, 2 L4 per well, three biological replicates
[7] = system: C. elegans RB2119 (acr-23(ok2804), monepantel-resistant); experiment: IC50 on amino-acetonitrile resistant C. elegans strain; format: in vivo, Caenorhabditis elegans; conditions: 5 days exposure, 2 L4 per well, three biological replicates, read-out: IC50, strain RB2119 (amino-acetonitriles)
[8] = system: C. elegans VC3635 (pink-1 gk3615, D19 resistant); experiment: IC50 on CID 2747322 resistant C. elegans strain VC3635; format: in vivo, Caenorhabditis elegans; conditions: 5 days exposure, 2 L4 per well, three biological replicates
Protocol: as §1, §2
(§3) A standard ethyl methanesulfonate (EMS) mutagenesis protocol was carried out using VC2010 in order to generate mutants resistant to CID 2747322 exposure. First larval stage (L1) F2 progeny of mutagenized P0s were exposed to CID 2747322 at 200 μM in liquid worm food in 24-well tissue culture plates for five days at room temperature, and two independently isolated resistant lines (VC3614 and VC3615) were identified. […]

[9] = system: C. elegans VC3631 (mev-1 gk3613, D19 resistant); experiment: IC50 on CID 2747322 resistant C. elegans strain VC3631; format: in vivo, Caenorhabditis elegans; conditions: 5 days exposure, 2 L4 per well, three biological replicates
Protocol: as §1, §2, §3

C. elegans VC2010 [10] = experiment: Manual phenotyping pilot screen of 3,584 known compounds (CCBN library); format: in vivo, Caenorhabditis elegans; conditions: dissecting microscope, positively confirmed drugs of CCBN library
C. elegans VC2010 [11] = experiment: Manual inspection of growth, brood size, developmental stage and recovery of C. elegans in drug; format: in vivo, Caenorhabditis elegans; conditions: L1s removed from the drug
Protocol: WormScan is a powerful tool to identify compounds with potential effects on the nematode, but it is still necessary to do manual inspection of wells with few animals to determine details of growth, behavior and fecundity. Wild-type worms grown in 90 μM CID 2747322 have brood sizes reduced by 97%. […] All current classes of anthelmintic have greater specificity towards certain life-stages. It is interesting that when removed from the drug L1s will recover and develop, and generally become fertile adults (See S3 Fig).
Supplementary file pntd.0005058.s002.tiff: S2 Fig Developmental stage of inhibition in C. elegans after CID 2747322 exposure. Ten VC2010 L1 stage C. elegans were sorted into a DMSO control well or 90 μM of CID 2747322. Nematodes were removed from the DMSO control or CID 2747322 after 24/48/72 hours and allowed to recover for 30 minutes on standard agar plates. (TIFF) Click here for additional data file.
Supplementary file pntd.0005058.s003.tiff: S3 Fig Development of C. elegans after removel from CID 2747322. Greater than 50 VC2010 L1 stage C. elegans were sorted into a DMSO control well or 90 μM of CID 2747322. Nematodes were removed from DMSO control or CID 2747322 after 2 days of exposure and left to recovery for 24/48/72 hours. (TIFF) Click here for additional data file.

nematodes = system: nematodes; design: method as in PMID 10924467; conditions: cited from earlier work
[12] = 5 days exposure, 2 L4 per well, three biological replicates, read-out: IC50, strain VC2010 (wild type)
[13] = C. elegans, 5 days exposure, read-out: Nematode IC50
[14] = Caenorhabditis elegans, 120 h, 5 days exposure, 2 L4 per well, three biological replicates, read-out: IC50, strain VC2010 (wild type)
[15] = Caenorhabditis elegans, 120 h, read-out: Nematode IC50

Compound: CC(C)Oc1cccc(NC(=O)c2ccccc2C(F)(F)F)c1 [flutolanil]
IC50 (A. suum complex II): 24.5 nM
IC50 (porcine complex II): 8.61 µM

Compound: FC(F)(F)c1cc(NCc2ccccc2)nc(-c2ccccc2)n1 [CID 796072]
IC50 [1, 12]: 7 µM
greater sensitivity in C. elegans than in other organisms (nematode index) ([1]; C. elegans versus mammalian cells, Table 1): four-fold
IC50 [1, 13]: 7 µM
IC50 [2]: 28 µM
IC50 [3]: > 1000 µM
IC50 [4]: 8 µM
IC50 [5]: 2 µM
IC50 [6]: 3000 nM
IC50 [7]: 2 µM
IC50 [8]: 9 µM
IC50 [9]: 11 µM

Compound: Ivermectin
WormScan Score ([1]; 50 μM, five days exposure, normalized, DMSO control = 100): 0
IC50 [1, 12]: 0.03 µM
IC50 [1, 13]: 0.03 µM
normalized WormScan score ([1]; normalized, DMSO control = 100): 0
IC50 [2]: 300 µM
IC50 [3]: > 1000 µM
IC50 [4]: 7 µM
IC50 [5]: 0.01 µM
IC50 [6]: 10 nM
IC50 [7]: 0.01 µM
IC50 [8]: 0.01 µM
IC50 [9]: 0.01 µM
Worm Reaction in Drug (C. elegans VC2010 [10]): appears dead/paralyzed no progeny

IC50 ([4]; Caenorhabditis elegans, 120 h): 8 µM
IC50 ([5]; Caenorhabditis elegans, 120 h): 2 µM
IC50 ([6]; Caenorhabditis elegans, 120 h): > 250000 nM
IC50 ([7]; Caenorhabditis elegans, 120 h): 4 µM
IC50 ([8]; Caenorhabditis elegans, 120 h): 6 µM
IC50 ([9]; Caenorhabditis elegans, 120 h): 10 µM
Compound: c1ccc([C@H]2CN3CCSC3=N2)cc1 [Levamisole]
IC50 [1, 14]: 4 µM

IC50 [3]: > 1000 µM
Compound: Fc1ccc(COc2ccc(-c3nnco3)cc2)cc1 [CID 2740991]
IC50 [1, 13]: 19 µM
IC50 [2]: 83 µM

Compound: CCCCNC(=O)n1c(NC(=O)OC)nc2ccccc21 [Benomyl, reference compound]
IC50 [1, 15]: 60 µM
IC50 ([2]; Homo sapiens): 8 µM
IC50 ([3]; Saccharomyces cerevisiae): 750 µM

IC50 [3]: 140 µM
Compound: Cc1nc2c(c3c1[nH]c1ccccc13)C(=O)CC(C)(C)C2 [CID 3254982]
IC50 [1, 13]: 17 µM
IC50 [2]: 37 µM

Compound: O=C(NCCc1ncc(C(F)(F)F)cc1Cl)c1ccccc1C(F)(F)F [Fluopyram, reference compound]
IC50 [1, 15]: 0.05 µM
IC50 ([2]; Homo sapiens): 300 µM
IC50 ([3]; Saccharomyces cerevisiae): > 1000 µM
outcome after exposure / removal from drug (C. elegans VC2010 [11]): animals are killed

IC50 ([4]; Caenorhabditis elegans, 120 h): 59 µM
IC50 ([5]; Caenorhabditis elegans, 120 h): > 1000 µM
IC50 ([6]; Caenorhabditis elegans, 120 h): 113000 nM
IC50 ([7]; Caenorhabditis elegans, 120 h): 28 µM
IC50 ([8]; Caenorhabditis elegans, 120 h): 118 µM
IC50 ([9]; Caenorhabditis elegans, 120 h): 91 µM
Compound: c1ccc2[nH]cnc2c1 [Benzimidazole]
IC50 [1, 14]: 61 µM

Compound: CC1(C)SC2C(N)C(=O)N2C1C(=O)O (stereo not drawn) [WACT162]
effect on nematodes (nematodes): only reduces growth
